The target in test [1] is T1, BRD4 BD1 (Homo sapiens, UniProt O60885).
T1 construct: HEK293 cells were transfected using NanoLuc-BRD4-BD1 or NanoLuc-BRD4-BD2 fusion vectors
The test can be described thus: NanoBRET bromodomain assay, NanoLuc-BRD4-BD1 in HEK293 cells. Format: binding. The procedure:
Exemplary compounds of the disclosure are active against BRD4 BD2 and selective over BRD4 BD1. BRD4 is a representative example of the BET family, as the binding sites of all BET family members are structurally similar. […] IC50s and fold selectivity's are determined as described below and are represented in Table 1.
(§1) Plates were then incubated at 37° C.+5% CO2 incubator for 2 hours.
(§2) Fold Selectivity Calculated (IC50 BD1/IC50 BD2).
A general note: BRET reads energy transfer from a luciferase to a nearby fluorophore.

Test [2] concerns the target T2, BRD4 BD2 (Homo sapiens, UniProt O60885).
T2 construct: HEK293 cells were transfected using NanoLuc-BRD4-BD1 or NanoLuc-BRD4-BD2 fusion vectors
The test can be described thus: NanoBRET bromodomain assay, NanoLuc-BRD4-BD2 in HEK293 cells. The format is binding. The following applies: for Fold Selectivity BRD4 BD1/BD2: IC50 BD1/IC50 BD2, qualitative if an IC50 is at the upper limit. How it is done:
as §1, §2

This note sets out measurements from US20260217701A1, “SELECTIVE BET INHIBITORS AND USES THEREOF” (Tay Therapeutics Limited, priority 2022, published 2026).

Broadly, the IC50 is the concentration that inhibits the measured activity by half. A higher IC50 goes with a need for much substance.

Structures are written as SMILES.

Turning to `Cc1cc(-c2cc3c(-c4cc(=O)n(C5CC5)cc4-c4ccccc4)cn(C)c(=O)c3[nH]2)cc(C)n1.Cl` [Example 28, 4-(1-cyclopropyl-2-oxo-5-phenyl-1,2-dihydropyridin-4-yl)-2-(2,6-dimethylpyridin-4-yl)-6-methyl-1,6-dihydro-7H-pyrrolo[2,3-c]pyridin-7-one hydrogen chloride], the IC50 is more than 1000 nM in test [1] and less than 10 nM in test [2]. For the same compound, in test [2], the “Fold Selectivity BRD4 BD1/BD2” value is listed as “xxxx (Fold >1000)”.

`Cn1cc(-c2ccccc2)c(-c2cn(C)c(=O)c3[nH]c(-c4ccc(F)c(C(C)(C)O)c4)cc23)cc1=O` [Example 69] displayed an IC50 in test [1] of 500 to 1000 nM. For the same compound, in test [2], the IC50 was less than 10 nM; the “Fold Selectivity BRD4 BD1/BD2” value was “xxx (Fold >200 and ≤1000)”.

`CN(C)CCn1cc(-c2ccccc2)c(-c2cn(C)c(=O)c3[nH]c(-c4cnn(C(F)(F)F)c4)cc23)cc1=O.O=CO` [Example 61, 4-(1-(2-(dimethylamino)ethyl)-2-oxo-5-phenyl-1,2-dihydropyridin-4-yl)-6-methyl-2-(1-(trifluoromethyl)-1H-pyrazol-4-yl)-1,6-dihydro-7H-pyrrolo[2,3-c]pyridin-7-one formate] came in with an IC50 in test [1] of 50 to 500 nM. In addition, in test [2], the IC50 was less than 10 nM; the “Fold Selectivity BRD4 BD1/BD2” value is “x (Fold >2 and ≤50)”.

Take `CC(C)n1cc(-c2[nH]c3c(=O)n(C)cc(-c4cc(=O)n(C)cc4-c4ccccc4)c3c2F)cn1` [Example 65, 4-[3-fluoro-2-(1-isopropylpyrazol-4-yl)-6-methyl-7-oxo-1H-pyrrolo[2,3-c]pyridin-4-yl]-1-methyl-5-phenylpyridin-2-one]: the figures for the IC50 in test [1] and in test [2] were more than 1000 nM and 10 to 50 nM, respectively. Moreover, the “Fold Selectivity BRD4 BD1/BD2” value in test [2] was “xxx (Fold >200 and ≤1000)”.

In test [1], `Cn1cc(-c2cccc(C3COC3)c2)c(-c2cn(C)c(=O)c3[nH]c(-c4ccc(F)cc4F)cc23)cc1=O` [Example 35, 2-(2,4-difluorophenyl)-6-methyl-4-(1-methyl-5-(3-(oxetan-3-yl)phenyl)-2-oxo-1,2-dihydropyridin-4-yl)-1,6-dihydro-7H-pyrrolo[2,3-c]pyridin-7-one] came in with an IC50 of more than 1000 nM. Also, in test [2], the IC50 lay within 10 to 50 nM; the “Fold Selectivity BRD4 BD1/BD2” value is “xxx (Fold >200 and ≤1000)”.

Consider `CSCc1cccc(-c2cn(C)c(=O)cc2-c2cn(C)c(=O)c3[nH]c(-c4cnn(C(F)(F)F)c4)cc23)c1` [Example 25, 6-methyl-4-(1-methyl-5-(3-((methylthio)methyl)phenyl)-2-oxo-1,2-dihydropyridin-4-yl)-2-(1-(trifluoromethyl)-1H-pyrazol-4-yl)-1,6-dihydro-7H-pyrrolo[2,3-c]pyridin-7-one], for which the IC50 in test [1] is more than 1000 nM; in test [2] it was less than 10 nM. The “Fold Selectivity BRD4 BD1/BD2” value in test [2] is given as “xxxx (Fold >1000)”.

As for `Cn1cc(-c2ccccc2Cl)c(-c2cn(C)c(=O)c3[nH]c(-c4ccc(F)cc4F)cc23)cc1=O` [Example 79], the IC50 in test [1] was more than 1000 nM. In addition, in test [2], the IC50 fell in the range of 10 to 50 nM; the “Fold Selectivity BRD4 BD1/BD2” value was “xxx (Fold >200 and ≤1000)”.

In test [1], `Cn1cc(-c2ccccc2)c(-c2cn(C)c(=O)c3[nH]c(-c4cccc(S(C)(=O)=O)c4)cc23)cc1=O` [Example 83] displayed an IC50 of 500 to 1000 nM. In addition, in test [2], the IC50 is less than 10 nM; the “Fold Selectivity BRD4 BD1/BD2” value was “xx (Fold >50 and ≤200)”.

As for `Cc1cccc(C)c1Oc1cn(C)c(=O)cc1-c1cn(C)c(=O)c2[nH]c(-c3cnn(C(F)(F)F)c3)cc12` [Example 11, 4-(5-(2,6-dimethylphenoxy)-1-methyl-2-oxo-1,2-dihydropyridin-4-yl)-6-methyl-2-(1-(trifluoromethyl)-1H-pyrazol-4-yl)-1,6-dihydro-7H-pyrrolo[2,3-c]pyridin-7-one], the IC50 in test [1] was more than 1000 nM; in test [2], less than 10 nM. Also, the “Fold Selectivity BRD4 BD1/BD2” value in test [2] was “xxxx (Fold >1000)”.

In the case of `COCCOc1cccc(-c2cn(C)c(=O)cc2-c2cn(C)c(=O)c3[nH]c(-c4cnn(C(C)C)c4)cc23)c1` [Example 74], in test [1], the IC50 is more than 1000 nM. In test [2], the IC50 lay within 10 to 50 nM; the “Fold Selectivity BRD4 BD1/BD2” value is “xx (Fold >50 and ≤200)”.

For `COCc1cccc(-c2cc3c(-c4cc(=O)n(C)cc4-c4ccccc4)cn(C)c(=O)c3[nH]2)c1` [Example 85], the IC50 in test [1] was more than 1000 nM. In test [2], the IC50 is less than 10 nM and the “Fold Selectivity BRD4 BD1/BD2” value was “xxxx (Fold >1000)”.

In the case of `CN(C)CCOc1cccc(-c2cn(C)c(=O)cc2-c2cn(C)c(=O)c3[nH]c(-c4cnn(C(F)(F)F)c4)cc23)c1` [Example 3, 4-(5-(3-(2-(dimethylamino)ethoxy)phenyl)-1-methyl-2-oxo-1,2-dihydropyridin-4-yl)-6-methyl-2-(1-(trifluoromethyl)-1H-pyrazol-4-yl)-1,6-dihydro-7H-pyrrolo[2,3-c]pyridin-7-one], the IC50 was more than 1000 nM in test [1] and 50 to 200 nM in test [2]. Besides, the “Fold Selectivity BRD4 BD1/BD2” value in test [2] is “xx (Fold >50 and ≤200)”.

Consider `Cc1c(-c2cnn(C(F)(F)F)c2)[nH]c2c(=O)n(C)cc(-c3cc(=O)n(C)cc3-c3ccccc3)c12` [Example 20, 3,6-dimethyl-4-(1-methyl-2-oxo-5-phenyl-1,2-dihydropyridin-4-yl)-2-(1-(trifluoromethyl)-1H-pyrazol-4-yl)-1,6-dihydro-7H-pyrrolo[2,3-c]pyridin-7-one], for which, in test [1], the half-maximal inhibitory concentration (IC50) was more than 1000 nM. Besides, in test [2], the IC50 lay within 10 to 50 nM; the “Fold Selectivity BRD4 BD1/BD2” value was “xxx (Fold >200 and ≤1000)”.

Turning to `Cc1cc(-c2cc3c(-c4cc(=O)n(C)cc4-c4ccccc4C)cn(C)c(=O)c3[nH]2)cc(C)n1.Cl` [Example 27, 2-(2,6-dimethylpyridin-4-yl)-6-methyl-4-(1-methyl-2-oxo-5-(o-tolyl)-1,2-dihydropyridin-4-yl)-1,6-dihydro-7H-pyrrolo[2,3-c]pyridin-7-one hydrochloride], the IC50 in test [1] is more than 1000 nM. For the same compound, in test [2], the IC50 was 10 to 50 nM; the “Fold Selectivity BRD4 BD1/BD2” value is “xxx (Fold >200 and ≤1000)”.

`Cc1cc(-c2cc3c(-c4cc(=O)n(C)cc4-c4ccccc4F)cn(C)c(=O)c3[nH]2)cc(C)n1.Cl` [Example 26, 2-(2,6-dimethylpyridin-4-yl)-4-(5-(2-fluorophenyl)-1-methyl-2-oxo-1,2-dihydropyridin-4-yl)-6-methyl-1,6-dihydro-7H-pyrrolo[2,3-c]pyridin-7-one hydrogen chloride] showed an IC50 in test [1] of 500 to 1000 nM. Moreover, in test [2], the 50% inhibitory concentration (IC50) was less than 10 nM; the “Fold Selectivity BRD4 BD1/BD2” value was “xxx (Fold >200 and ≤1000)”.

For the compound `CC(C)n1cc(-c2cc3c(-c4cc(=O)n(C)cc4-c4cccc(OCCO)c4)cn(C)c(=O)c3[nH]2)cn1` [Example 75], the IC50 in test [1] is more than 1000 nM; in test [2] it was 200 to 1000 nM. The “Fold Selectivity BRD4 BD1/BD2” value in test [2] was “x (Fold >2 and ≤50)”.

In the case of `Cn1cc(-c2ccccc2)c(-c2cn(C)c(=O)c3[nH]c(-c4ccccc4F)cc23)cc1=O` [Example 42, 2-(2-fluorophenyl)-6-methyl-4-(1-methyl-2-oxo-5-phenyl-1,2-dihydropyridin-4-yl)-1,6-dihydro-7H-pyrrolo[2,3-c]pyridin-7-one], the IC50 in test [1] was more than 1000 nM. In addition, in test [2], the IC50 is less than 10 nM and the “Fold Selectivity BRD4 BD1/BD2” value is “xxxx (Fold >1000)”.

Consider `Cc1cccc(C)c1Oc1cn(C)c(=O)cc1-c1cn(C)c(=O)c2[nH]c(-c3cnn(CC#N)c3)cc12` [Example 96], for which, in test [1], the IC50 fell in the range of 500 to 1000 nM. In addition, in test [2], the IC50 was in the range of 10 to 50 nM; the “Fold Selectivity BRD4 BD1/BD2” value was “x (Fold >2 and ≤50)”.

In test [1], `Cn1cc(-c2ccccc2)c(-c2cn(C)c(=O)c3[nH]c(-c4cccnc4)cc23)cc1=O` [Example 80] had an IC50 of 50 to 500 nM. Besides, in test [2], the half-inhibitory concentration (IC50) was less than 10 nM; the “Fold Selectivity BRD4 BD1/BD2” value was “xx (Fold >50 and ≤200)”.

Consider `Cn1cc(-c2cccc(C(C)(C)O)c2)c(-c2cn(C)c(=O)c3[nH]c(-c4ccc(F)cc4F)cc23)cc1=O` [Example 51, 2-(2,4-difluorophenyl)-4-(5-(3-(2-hydroxypropan-2-yl)phenyl)-1-methyl-2-oxo-1,2-dihydropyridin-4-yl)-6-methyl-1,6-dihydro-7H-pyrrolo[2,3-c]pyridin-7-one], for which, in test [1], the IC50 is more than 1000 nM. In test [2], the IC50 is less than 10 nM and the “Fold Selectivity BRD4 BD1/BD2” value is “xxxx (Fold >1000)”.

In turn, `Cn1cc(-c2ccc(COC(F)(F)F)cc2)c(-c2cn(C)c(=O)c3[nH]c(-c4cnn(C(F)(F)F)c4)cc23)cc1=O` [Example 18, 6-methyl-4-(1-methyl-2-oxo-5-(4-((trifluoromethoxy)methyl)phenyl)-1,2-dihydropyridin-4-yl)-2-(1-(trifluoromethyl)-1H-pyrazol-4-yl)-1,6-dihydro-7H-pyrrolo[2,3-c]pyridin-7-one] came in with an IC50 in test [1] of more than 1000 nM. Also, in test [2], the IC50 was less than 10 nM and the “Fold Selectivity BRD4 BD1/BD2” value is on record as “xxxx (Fold >1000)”.

Consider `Cc1cccc(C)c1Oc1cn(C)c(=O)cc1-c1cn(C)c(=O)c2[nH]c(-c3cc(F)cc(F)c3F)cc12` [Example 55, 4-(5-(2,6-dimethylphenoxy)-1-methyl-2-oxo-1,2-dihydropyridin-4-yl)-6-methyl-2-(2,3,5-trifluorophenyl)-1,6-dihydro-7H-pyrrolo[2,3-c]pyridin-7-one], for which the IC50 in test [1] is more than 1000 nM; in test [2], less than 10 nM. The “Fold Selectivity BRD4 BD1/BD2” value in test [2] is listed as “xxxx (Fold >1000)”.

Take `Cc1cc(-c2cc3c(-c4cc(=O)n(C)cc4-c4ccccc4Cl)cn(C)c(=O)c3[nH]2)cc(C)n1.Cl` [Example 32, 4-(5-(2-chlorophenyl)-1-methyl-2-oxo-1,2-dihydropyridin-4-yl)-2-(2,6-dimethylpyridin-4-yl)-6-methyl-1,6-dihydro-7H-pyrrolo[2,3-c]pyridin-7-one hydrogen chloride]: the IC50 in test [1] was more than 1000 nM. Also, in test [2], the IC50 was 10 to 50 nM; the “Fold Selectivity BRD4 BD1/BD2” value was “xxx (Fold >200 and ≤1000)”.
